Results as given in publication PMC6449294, “SNAPshots of the MCHR1: a Comparison Between the PET-Tracers [^18F]FE@SNAP and [^11C]SNAP-7941” (Molecular Imaging and Biology, 2018).
“Also recorded” adds a separate entry of the source.

Experiments:
P-gp/BCRP = experiment: Small animal PET of rat brain, vehicle vs pretreatment with P-gp/BCRP inhibitor TQD; format: in vivo; conditions: for increase of brain uptake in TQD blocking group vs vehicle: rats, TQD 15 mg/kg 60 min before radiotracer, PET
Protocol: (§1) Ten-week-old male rats (412 ± 58 g, Sprague-Dawley, HIM:OFA, n = 30) and 12-week-old male mice (24 ± 6 g, BALB/cAnNRj, n = 7) were purchased from the Division of Laboratory Animal Science and Genetics, Himberg, Austria. Animals were kept under conventional housing conditions (22 ± 1 °C; 40–70 % humidity) with food and water supply ad libitum and 12-h day/night cycle. All animals were treated according to the European Union rules on animal care and respective animal experiments were approved by the Austrian Ministry of Sciences, Research and Economy (BMWFW-66.009/0029-WF/V/3b/20159). For in vivo imaging, animals were anesthetized using 1.5–2 % isoflurane mixed with oxygen (1.5–2 l/min) to avoid movement during the examination. Anesthesia as well as vital parameters were monitored during the time interval of PET acquisition. Radioligands and non-labeled compounds were administered intravenously via the lateral tail vein.
Anesthetized rats and mice were immobilized in a multimodal animal carrier unit (MACU; medres®—medical research GmbH, Cologne, Germany). The body temperature was preserved at 37 °C throughout the whole experiment. Rats received either [^11C]SNAP-7941 or [^18F]FE@SNAP, followed by an injection of (±)-SNAP-7941 (15-mg/kg body weight; displacement study; n = 4 for each radiotracer) or the respective solvent serving as the vehicle (baseline condition; n = 4 for each radiotracer). The MCHR1 antagonist, (±)-SNAP-7941, and the vehicle were administered either 15 ([^11C]SNAP-7941) or 20 min ([^18F]FE@SNAP) after the radiotracer application via the lateral tail vein. To investigate a potential binding to the P-glycoprotein (P-gp) and/or breast cancer resistance protein (BCRP) brain efflux transporter system, rats as well as mice were pretreated either with the P-gp/BCRP inhibitor TQD (15 mg/kg body weight; P-gp/BCRP inhibition group; rats: n = 4 for each radiotracer; mice: n = 4 for [^18F]FE@SNAP) or the respective solvent (baseline condition; rats: n = 3 for each radiotracer; mice: n = 3 for [^18F]FE@SNAP)). […]

MCHR1 = biological target: T1, MCHR1 (Rattus norvegicus, UniProt P97639); experiment: Small animal PET displacement study with (±)-SNAP-7941 (time-activity curves); format: in vivo; conditions: rats; for change of brown adipose tissue (BAT) TAC after administration of (±)-SNAP-7941 / change of lung TAC after displacement: 15 mg/kg (±)-SNAP-7941; for displacement in whole brain (TAC): 15 mg/kg (±)-SNAP-7941 i.v. 15 or 20 min after tracer
T1 construct: from tissue; host or cells: living Sprague-Dawley rats (PET) and their organs after sacrifice
Protocol: as §1
Anesthetized rats and mice were immobilized in a multimodal animal carrier unit (MACU; medres®—medical research GmbH, Cologne, Germany). The body temperature was preserved at 37 °C throughout the whole experiment. Rats received either [^11C]SNAP-7941 or [^18F]FE@SNAP, followed by an injection of (±)-SNAP-7941 (15-mg/kg body weight; displacement study; n = 4 for each radiotracer) or the respective solvent serving as the vehicle (baseline condition; n = 4 for each radiotracer). The MCHR1 antagonist, (±)-SNAP-7941, and the vehicle were administered either 15 ([^11C]SNAP-7941) or 20 min ([^18F]FE@SNAP) after the radiotracer application via the lateral tail vein. To investigate a potential binding to the P-glycoprotein (P-gp) and/or breast cancer resistance protein (BCRP) brain efflux transporter system, rats as well as mice were pretreated either with the P-gp/BCRP inhibitor TQD (15 mg/kg body weight; P-gp/BCRP inhibition group; rats: n = 4 for each radiotracer; mice: n = 4 for [^18F]FE@SNAP) or the respective solvent (baseline condition; rats: n = 3 for each radiotracer; mice: n = 3 for [^18F]FE@SNAP)). Mice received the P-gp/BCRP inhibitor 30 min and rats 60 min before the radiotracer application. Experiments were initiated with a 7-min cone beam attenuation CT (CBCT) of the brain (full rotation, 360 projections; binning 4 × 4; 80 kV; 500 μA; 200-ms exposure time) using a small animal cone beam computed tomography (CBCT) scanner (Siemens Inveon microSPECT/CT, Siemens Medical Solutions, Knoxville, USA). Subsequently, the animals were positioned in the Siemens Inveon microPET scanner (Siemens Medical Solution, Knoxville, USA). The radiotracers were injected intravenously, and dynamic PET imaging was performed for 45 min (rats) in case of [^11C]SNAP-7941 (77.46 ± 5.41 MBq; molar activity 76.66 ± 23.58 GBq/μmol; radiochemical purity > 99 %) and 30 min (mice)—60 min (rats) for [^18F]FE@SNAP (47.08 ± 6.24 MBq; molar activity 22.18 ± 9.72 GBq/μmol; radiochemical purity > 90 %).
Image reconstruction of the CT raw data was performed with a Feldkamp algorithm using a ramp filter followed by standard rat beam-hardening correction and noise reduction (matrix size 1024 × 1024; effective pixel size: 97.56 μm). All CT image data was calibrated to Hounsfield units (HU). PET list mode data were sorted into three-dimensional sinograms according to the following frame sequences, [^11C]SNAP-7941: 1 × 3 s, 3 × 2 s, 1 × 6 s, 1 × 15 s, 1 × 35 s, 1 × 145 s, 1 × 270 s, 1 × 285 s, 1 × 165 s, 3 × 30 s, 1 × 120 s, 1 × 240 s, 1 × 420 s, 1 × 900 s and for [^18F]FE@SNAP: 1 × 2 s, 1 × 3 s, 1 × 5 s, 3 × 10 s, 1 × 20 s, 1 × 60 s, 1 × 120 s, 4 × 240 s, 4 × 600 s. PET image reconstruction were performed using an OSEM 3D/OP-MAP with scatter correction and a ramp filter (matrix size 128 × 128). Image data were normalized and corrected for random events, dead time, and radioactive decay. A calibration factor was applied to convert the activity information into absolute concentration units. […]

[1] = Ex vivo metabolites in rat whole blood (radio-HPLC); conditions: for Metabolism in rat blood: ex vivo, result in words
Protocol: For the analysis of potential radiometabolites, blood samples (50–80 μl) from rats were withdrawn at 10 and 45 min for [^11C]SNAP-7941 and at 10, 30, and 60 min for [^18F]FE@SNAP and immediately subjected to the equivalent amount of acetonitrile, homogenized, and stored on ice before processing. Additionally, [^18F]FE@SNAP was administered to three rats, which were sacrificed after 45 min. Whole brains were harvested and homogenized with equivalent amounts (500–800 μl) of acetonitrile and 0.9 % saline solution using an ULTRA-TURRAX® (T25 basic, IKA Laboratory Equipment, Staufen, Germany). Subsequently, blood and brain were centrifuged (23,000 ×g, 4 min, 4 °C; Hettich Universal 30RF, Tuttlingen, Germany), and the obtained supernatant was analyzed by an analytical HPLC equipped with a radioactivity detector (radio-HPLC) (stationary phase: Chromolith® Performance RP-18e, 100–4.6 mm; precolumn: Chromolith® Guard Cartridge RP-18e, 5–4.6 mm; Merck, Darmstadt, Germany), mobile phase: (water/acetic acid 97.5/2.5 v/v; 2.5 g/l ammonium acetate; pH 3.5)/acetonitrile 70/30 v/v; flow: 1 ml/min, λ = 254 nm). The ratio between metabolite and intact radiotracer was calculated using quantitative HPLC analysis.

[2] = 10 min after radiotracer application

T1 sequence (P97639 whole entry): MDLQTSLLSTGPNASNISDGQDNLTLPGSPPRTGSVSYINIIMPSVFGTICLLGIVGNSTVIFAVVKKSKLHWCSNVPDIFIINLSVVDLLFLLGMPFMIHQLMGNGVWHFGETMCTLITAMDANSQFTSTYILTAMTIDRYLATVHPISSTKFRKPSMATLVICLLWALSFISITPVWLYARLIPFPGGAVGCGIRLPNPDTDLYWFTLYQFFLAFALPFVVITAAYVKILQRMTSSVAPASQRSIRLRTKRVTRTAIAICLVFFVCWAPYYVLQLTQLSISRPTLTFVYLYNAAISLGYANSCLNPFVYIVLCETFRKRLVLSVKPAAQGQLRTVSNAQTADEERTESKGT

COCC1=C(C(=O)OCC[18F])C(c2ccc(F)c(F)c2)N(C(=O)NCCCN2CCC(c3cccc(NC(C)=O)c3)CC2)C(=O)N1 (stereo not shown) [[^18F]FE@SNAP]
increase of brain uptake in TQD blocking group vs vehicle (P-gp/BCRP): 2.45 times | change of brown adipose tissue (BAT) TAC after administration of (±)-SNAP-7941 (MCHR1): increased uptake | change of lung TAC after displacement (MCHR1): drop in the TAC | displacement in whole brain (TAC) (MCHR1): displacement could not be detected | intact tracer in rat whole blood [1, 2]: 38.40 ± 2.3% | intact tracer in rat whole blood ([1]; 30 min after administration): 31.59 ± 4.0% | intact tracer in rat whole blood ([1]; 60 min): 14.42 ± 3.3% | Metabolism in rat blood [1]: Rapidly metabolized

COCC1=C(C(=O)O[11CH3])C(c2ccc(F)c(F)c2)N(C(=O)NCCCN2CCC(c3cccc(NC(C)=O)c3)CC2)C(=O)N1 (stereo not shown) [[^11C]SNAP-7941]
P-gp/BCRP substrate status (P-gp/BCRP; rat brain PET after TQD pretreatment, result in words): P-gp/BCRP substrate | increase of brain uptake in TQD blocking group vs vehicle (P-gp/BCRP): 3.04 times | change of brown adipose tissue (BAT) TAC after administration of (±)-SNAP-7941 (MCHR1): increased uptake | change of lung TAC after displacement (MCHR1): drop in the TAC | displacement in whole brain (TAC) (MCHR1): clear displacement | intact tracer in rat whole blood [1, 2]: 93.52 ± 0.1% | intact tracer in rat whole blood ([1]; 45 min): 93.74 ± 6.2% | Metabolism in rat blood [1]: high metabolic stability; also recorded: Stable
